According to US20210107874A1, “PHARMACEUTICAL FORMULATION OF CROTONYLAMINOPYRIDINE SALT” (priority 2017, published 2021):
Several values for one entry are separate records, joined by “and”; a condition that tells them apart may be missing. Equal entries are not always repeated. Where two headings read alike, the source gives them in different places.

Key:
[1] = Solubility of synthesized tartrate salt and free base of compound 4; type: physicochemical; details: free base; read-out: solubility
Method: The free base of compound 4 has a solubility of 0.8 mg/ml

[2] = Solubility of salts of compound 4: compound added in portions to acid in water until no clear solution; type: physicochemical; details: for Dissolved g of 4 / pH: clear solution
Method: A defined amount of an acid (1.0 g) was weighed into a flask and dissolved in water (10 ml). […] The pH value was measured after each addition.
Thus 8 g of compound 4 in 10 ml of water can be dissolved.

[3] = PK studies of formulations, plasma by HPLC-MS/MS; type: in vivo; details: Cattle
Method: The following formulations were prepared and administered to animals. Blood samples were collected at pre-defined time points and the amount of compound present in plasma at the time of sampling was determined by HPLC-MS/MS. Pharmacokinetic parameters were then calculated: Cmax, Tmax, Tlast, AUC. [table]

[4] = 0.5 g Acetic acid in 10 ml water
[5] = 1.0 g Citric acid in 10 ml water
[6] = 1.0 g Tartaric acid in 10 ml water
[7] = Form O62.5 (FormO type: L-tartaric acid, NaOH to pH 4.4, water), SC, 1.25 mg/kg

Question: What does the source list for `CCOc1cc(NCCNC(=O)/C=C/C(F)(F)F)ccn1` [Compound 4, (E)-N-[2-[(2-ethoxy-4-pyridyl)amino]ethyl]-4,4,4-trifluoro-but-2-enamide]?
Answer: solubility [1]: 800 µg/mL; Dissolved g of 4 [2, 4]: 1 g; pH [2, 4]: 4.6; Dissolved g of 4 [2, 5]: 2.5 g; pH [2, 5]: 4.4; Dissolved g of 4 ([2]; 1.0 g Maleic acid in 10 ml water): <0.1 g; Dissolved g of 4 [2, 6]: 3.5 g; pH [2, 6]: 4.2; appearance of solution ([2]; 2 g compound 4 and 1 g tartaric acid in 2.5 ml water): clear solution; amount that can be dissolved in 10 ml of water ([2]; with tartaric acid, scaled from 2 g in 2.5 ml): 8 g; Tlast ([3]; Form A50 (NMP, propylene glycol, water), SC, 1.25 mg/kg): 6.5 h; Tlast ([3]; Form B62.5 (dimethyl acetamide, propylene glycol, water), SC, 1.25 mg/kg): 5.33 h; AUC [3, 7]: 372 ng·h/mL; Cmax [3, 7]: 428 ng/mL; Tlast [3, 7]: 4 h and 3 h; Tmax [3, 7]: 18.6 min; Tlast ([3]; FormC62.5 (propylene glycol, ethanol, Transcutol P), SC, 1.25 mg/kg): 10.7 h; Tlast ([3]; FormD62.5 (PEG 300, ethanol, Transcutol P), SC, 1.25 mg/kg): 4 h; Tlast ([3]; FormE62.5 (polyethylene glycol 300, ethyl alcohol 96%, water), SC, 1.25 mg/kg): 5 h; Tlast ([3]; FormF62.5 (polyethylene glycol, 1-octanol, 2-pyrrolidone), SC, 1.25 mg/kg): 8 h; Tlast ([3]; FormG62.5 (benzyl alcohol, ethyl alcohol 96%, polyethylene glycol 300), SC, 1.25 mg/kg): 5.33 h; Tlast ([3]; FormH62.5 (DMA, DMSO, 2-pyrrolidone), SC, 1.25 mg/kg): 4 h; Tlast ([3]; FormJ62.5 (DMSO, 2-pyrrolidone, ethyl lactate), SC, 1.25 mg/kg): 4 h; Tlast ([3]; FormK62.5 (2-pyrrolidone, Transcutol P, ethyl lactate), SC, 1.25 mg/kg): 4 h; Tlast ([3]; FormL50 (DMA, propylene glycol, water), SC, 1.25 mg/kg): 4 h; Tlast ([3]; FormM62.5 (L-tartaric acid, sodium hydroxide up to pH 4.6, water), SC, 1.25 mg/kg): 3.33 h; Tlast ([3]; FormO60 (FormO type: L-tartaric acid, NaOH to pH 4.4, water), SC, 1 mg/kg): 2.67 h; Tlast ([3]; FormP62.5 (L-tartaric acid, 2-pyrrolidone, NaOH, water), SC, 1.25 mg/kg): 6.67 h; Tlast ([3]; FormQ62.5 (L-tartaric acid, sodium carboxymethyl cellulose, NaOH up to pH 4.3, water), SC, 1.25 mg/kg): 4 h; Tlast ([3]; FormR50 (L-tartaric acid, 2-pyrrolidone, NaOH, water), SC, 1 mg/kg): 6.67 h; Tlast ([3]; FormS50 (L-tartaric acid, sodium carboxymethyl cellulose, 2-pyrrolidone, NaOH, water), SC, 1 mg/kg): 8.67 h; Tlast ([3]; FormT50 (DL-Lactic acid, hydrochloric acid up to pH 4.4, water), SC, 1 mg/kg): 3.67 h; AUC ([3]; bovine, plasma, sc, 1 mg/kg, FormR50 (L-tartaric acid, 2-pyrrolidone, NaOH, water), 1 mg/kg, read-out: AUC): 248 ng·h/mL; Cmax ([3]; bovine, plasma, sc, 1 mg/kg, FormR50 (L-tartaric acid, 2-pyrrolidone, NaOH, water), 1 mg/kg, read-out: Cmax): 59.4 ng/mL; Tmax ([3]; bovine, plasma, sc, 1 mg/kg, FormR50 (L-tartaric acid, 2-pyrrolidone, NaOH, water), 1 mg/kg, read-out: Tmax): 60 min; AUC ([3]; bovine, plasma, sc, 1 mg/kg, FormS50 (L-tartaric acid, sodium carboxymethyl cellulose, 2-pyrrolidone, NaOH, water), 1 mg/kg, read-out: AUC): 339 ng·h/mL; Cmax ([3]; bovine, plasma, sc, 1 mg/kg, FormS50 (L-tartaric acid, sodium carboxymethyl cellulose, 2-pyrrolidone, NaOH, water), 1 mg/kg, read-out: Cmax): 69.3 ng/mL; Tmax ([3]; bovine, plasma, sc, 1 mg/kg, FormS50 (L-tartaric acid, sodium carboxymethyl cellulose, 2-pyrrolidone, NaOH, water), 1 mg/kg, read-out: Tmax): 79.8 min; AUC ([3]; bovine, plasma, sc, 1 mg/kg, pH 4.4, FormO60 (FormO type: L-tartaric acid, NaOH to pH 4.4, water), 1 mg/kg, read-out: AUC): 302 ng·h/mL; Cmax ([3]; bovine, plasma, sc, 1 mg/kg, pH 4.4, FormO60 (FormO type: L-tartaric acid, NaOH to pH 4.4, water), 1 mg/kg, read-out: Cmax): 374 ng/mL; Tmax ([3]; bovine, plasma, sc, 1 mg/kg, pH 4.4, FormO60 (FormO type: L-tartaric acid, NaOH to pH 4.4, water), 1 mg/kg, read-out: Tmax): 15 min; AUC ([3]; bovine, plasma, sc, 1 mg/kg, pH 4.4, FormT50 (DL-Lactic acid, hydrochloric acid up to pH 4.4, water), 1 mg/kg, read-out: AUC): 293 ng·h/mL; Cmax ([3]; bovine, plasma, sc, 1 mg/kg, pH 4.4, FormT50 (DL-Lactic acid, hydrochloric acid up to pH 4.4, water), 1 mg/kg, read-out: Cmax): 281 ng/mL; Tmax ([3]; bovine, plasma, sc, 1 mg/kg, pH 4.4, FormT50 (DL-Lactic acid, hydrochloric acid up to pH 4.4, water), 1 mg/kg, read-out: Tmax): 25.2 min
